Measured values from patent publication US6887712B1, “Methods and compositions to lower plasma cholesterol levels” (AtheroGenics, Inc., priority 1998, dated 2005).

Assays:
purified human LDL = biological target: T1, purified human LDL (Homo sapiens, UniProt P04114); test: Agarose electrophoresis of purified human LDL mixed with compound; type: binding
T1 construct: from tissue; host or cells: human LDL particles (plasma lipoprotein)
Method: Agarose electrophoresis is a technique used to separate and study lipoproteins. The monosuccinic acid ester of probucol was added to purified human LDL and the mixture was run on agarose electrophoresis.

[1] = biological target: T2, specific epitope on apoB-100 of LDL (Homo sapiens, UniProt P04114); test: Immunoreactivity cell-free sandwich ELISA: binding of LDL to capture anti-apoB monoclonal antibody
T2 construct: from tissue; host or cells: LDL particles (plasma lipoprotein)
T2 sequence (P04114 28-4563): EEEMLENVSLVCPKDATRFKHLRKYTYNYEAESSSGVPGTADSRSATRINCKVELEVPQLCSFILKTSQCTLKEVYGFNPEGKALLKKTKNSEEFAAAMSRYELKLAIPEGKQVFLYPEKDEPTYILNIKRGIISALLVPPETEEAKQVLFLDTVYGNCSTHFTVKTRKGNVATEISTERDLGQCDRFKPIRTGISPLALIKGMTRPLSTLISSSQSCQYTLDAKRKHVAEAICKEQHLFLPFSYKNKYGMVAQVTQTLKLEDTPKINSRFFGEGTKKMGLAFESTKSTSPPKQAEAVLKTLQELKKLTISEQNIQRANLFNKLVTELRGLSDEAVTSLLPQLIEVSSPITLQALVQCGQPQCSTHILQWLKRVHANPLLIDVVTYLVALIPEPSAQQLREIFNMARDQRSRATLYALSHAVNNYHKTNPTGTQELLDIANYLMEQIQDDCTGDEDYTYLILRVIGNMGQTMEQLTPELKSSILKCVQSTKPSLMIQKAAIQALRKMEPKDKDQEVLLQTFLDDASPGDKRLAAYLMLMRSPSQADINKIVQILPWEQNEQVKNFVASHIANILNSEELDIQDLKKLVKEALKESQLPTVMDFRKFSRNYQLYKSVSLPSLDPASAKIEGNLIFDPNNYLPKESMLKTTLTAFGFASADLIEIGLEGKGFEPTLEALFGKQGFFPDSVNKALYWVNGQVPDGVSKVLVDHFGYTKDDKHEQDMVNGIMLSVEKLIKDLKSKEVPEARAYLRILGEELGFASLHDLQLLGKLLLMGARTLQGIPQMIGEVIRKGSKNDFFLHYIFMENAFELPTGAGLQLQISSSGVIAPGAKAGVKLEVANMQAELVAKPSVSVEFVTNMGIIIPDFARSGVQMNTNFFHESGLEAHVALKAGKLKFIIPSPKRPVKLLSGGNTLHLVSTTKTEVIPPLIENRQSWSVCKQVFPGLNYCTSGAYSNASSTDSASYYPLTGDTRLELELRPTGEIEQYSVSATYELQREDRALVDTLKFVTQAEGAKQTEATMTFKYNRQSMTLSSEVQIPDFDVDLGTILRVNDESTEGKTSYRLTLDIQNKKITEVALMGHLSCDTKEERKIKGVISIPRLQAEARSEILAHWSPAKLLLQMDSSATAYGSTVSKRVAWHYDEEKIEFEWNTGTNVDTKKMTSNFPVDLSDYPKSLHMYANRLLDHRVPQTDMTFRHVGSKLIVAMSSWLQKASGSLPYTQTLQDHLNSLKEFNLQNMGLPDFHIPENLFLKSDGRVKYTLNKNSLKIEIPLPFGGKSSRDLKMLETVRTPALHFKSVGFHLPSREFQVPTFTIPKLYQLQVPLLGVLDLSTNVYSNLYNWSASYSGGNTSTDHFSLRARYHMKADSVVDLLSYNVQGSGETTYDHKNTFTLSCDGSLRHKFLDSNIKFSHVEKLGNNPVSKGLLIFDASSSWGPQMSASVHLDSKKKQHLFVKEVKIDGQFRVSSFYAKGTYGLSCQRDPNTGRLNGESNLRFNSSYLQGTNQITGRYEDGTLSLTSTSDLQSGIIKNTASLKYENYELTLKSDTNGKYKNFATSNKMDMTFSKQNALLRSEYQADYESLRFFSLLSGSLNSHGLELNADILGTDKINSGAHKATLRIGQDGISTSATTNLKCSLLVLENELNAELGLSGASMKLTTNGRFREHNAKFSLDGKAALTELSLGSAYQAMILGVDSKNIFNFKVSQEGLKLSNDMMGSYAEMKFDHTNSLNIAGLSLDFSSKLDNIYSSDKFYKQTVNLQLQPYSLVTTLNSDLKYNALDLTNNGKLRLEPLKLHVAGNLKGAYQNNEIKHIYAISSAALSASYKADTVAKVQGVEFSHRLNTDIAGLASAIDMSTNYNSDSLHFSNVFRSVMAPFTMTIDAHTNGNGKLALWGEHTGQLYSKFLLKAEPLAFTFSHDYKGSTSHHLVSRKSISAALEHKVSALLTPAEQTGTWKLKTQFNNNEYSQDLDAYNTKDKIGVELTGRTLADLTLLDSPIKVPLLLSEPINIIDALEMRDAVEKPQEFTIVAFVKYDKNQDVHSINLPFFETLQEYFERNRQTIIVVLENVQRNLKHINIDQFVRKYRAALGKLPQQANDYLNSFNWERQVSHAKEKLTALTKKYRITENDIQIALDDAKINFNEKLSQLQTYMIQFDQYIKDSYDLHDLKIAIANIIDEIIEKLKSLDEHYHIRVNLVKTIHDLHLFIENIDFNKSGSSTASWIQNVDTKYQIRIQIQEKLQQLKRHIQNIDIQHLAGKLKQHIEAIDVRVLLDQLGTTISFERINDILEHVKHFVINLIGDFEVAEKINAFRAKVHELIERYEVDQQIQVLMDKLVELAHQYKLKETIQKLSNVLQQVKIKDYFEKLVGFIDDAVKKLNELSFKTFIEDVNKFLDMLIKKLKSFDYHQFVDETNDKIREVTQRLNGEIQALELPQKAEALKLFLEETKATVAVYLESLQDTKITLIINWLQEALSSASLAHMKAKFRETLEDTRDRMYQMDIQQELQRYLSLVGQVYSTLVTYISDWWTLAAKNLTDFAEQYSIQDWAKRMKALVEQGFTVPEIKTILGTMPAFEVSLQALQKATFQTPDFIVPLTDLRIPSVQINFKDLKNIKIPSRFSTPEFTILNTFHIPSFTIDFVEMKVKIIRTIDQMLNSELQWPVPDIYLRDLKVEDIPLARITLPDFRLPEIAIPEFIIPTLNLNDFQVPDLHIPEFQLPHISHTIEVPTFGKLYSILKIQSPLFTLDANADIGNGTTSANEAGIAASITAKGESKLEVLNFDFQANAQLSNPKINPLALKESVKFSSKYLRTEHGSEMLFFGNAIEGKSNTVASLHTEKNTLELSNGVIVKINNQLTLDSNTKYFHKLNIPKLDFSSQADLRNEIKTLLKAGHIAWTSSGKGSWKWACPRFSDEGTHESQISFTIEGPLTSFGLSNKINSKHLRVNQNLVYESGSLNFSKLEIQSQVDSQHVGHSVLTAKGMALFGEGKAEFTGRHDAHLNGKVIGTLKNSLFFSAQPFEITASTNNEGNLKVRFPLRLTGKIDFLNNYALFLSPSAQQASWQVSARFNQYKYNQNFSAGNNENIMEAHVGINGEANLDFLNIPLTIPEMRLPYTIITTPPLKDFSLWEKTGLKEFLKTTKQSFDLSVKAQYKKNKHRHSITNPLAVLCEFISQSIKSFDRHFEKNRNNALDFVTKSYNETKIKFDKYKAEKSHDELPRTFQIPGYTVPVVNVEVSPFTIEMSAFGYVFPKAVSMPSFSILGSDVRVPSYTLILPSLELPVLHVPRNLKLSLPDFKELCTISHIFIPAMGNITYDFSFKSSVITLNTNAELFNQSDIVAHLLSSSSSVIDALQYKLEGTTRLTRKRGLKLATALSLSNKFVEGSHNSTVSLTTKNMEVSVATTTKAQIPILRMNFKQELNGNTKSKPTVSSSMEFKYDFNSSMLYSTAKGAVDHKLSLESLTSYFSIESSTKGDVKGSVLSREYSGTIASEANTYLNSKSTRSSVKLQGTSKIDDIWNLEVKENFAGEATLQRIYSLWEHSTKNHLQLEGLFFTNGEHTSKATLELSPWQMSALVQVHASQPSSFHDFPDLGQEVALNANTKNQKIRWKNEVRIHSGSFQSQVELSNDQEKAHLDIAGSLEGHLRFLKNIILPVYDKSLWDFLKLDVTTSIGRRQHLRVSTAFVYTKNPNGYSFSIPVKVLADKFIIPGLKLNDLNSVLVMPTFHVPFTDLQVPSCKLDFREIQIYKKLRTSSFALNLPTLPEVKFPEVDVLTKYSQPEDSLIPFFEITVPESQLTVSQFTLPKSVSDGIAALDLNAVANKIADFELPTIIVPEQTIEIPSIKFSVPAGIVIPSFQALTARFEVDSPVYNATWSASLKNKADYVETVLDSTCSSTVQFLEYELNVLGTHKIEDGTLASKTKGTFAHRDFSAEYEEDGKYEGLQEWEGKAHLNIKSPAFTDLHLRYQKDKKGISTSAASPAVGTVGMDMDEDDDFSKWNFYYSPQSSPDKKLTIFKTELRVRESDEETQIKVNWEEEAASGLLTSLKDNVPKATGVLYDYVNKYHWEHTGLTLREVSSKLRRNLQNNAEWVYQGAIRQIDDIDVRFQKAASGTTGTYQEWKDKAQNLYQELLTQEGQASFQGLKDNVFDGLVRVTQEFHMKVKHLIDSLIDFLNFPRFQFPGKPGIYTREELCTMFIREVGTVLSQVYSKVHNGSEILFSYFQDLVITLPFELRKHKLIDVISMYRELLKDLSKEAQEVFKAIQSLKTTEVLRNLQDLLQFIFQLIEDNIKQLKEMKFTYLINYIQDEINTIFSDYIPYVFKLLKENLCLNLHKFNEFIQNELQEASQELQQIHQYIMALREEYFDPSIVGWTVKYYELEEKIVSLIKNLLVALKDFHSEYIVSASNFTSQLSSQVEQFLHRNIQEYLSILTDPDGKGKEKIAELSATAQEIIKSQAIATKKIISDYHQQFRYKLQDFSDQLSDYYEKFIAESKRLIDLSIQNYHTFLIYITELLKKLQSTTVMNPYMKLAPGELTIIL
Excerpt: To determine if the binding of the monosuccinic acid ester to VLDL and LDL can cause a change in the structure of apoB-100, an immunoreactivity assay was designed. This is a sandwich ELISA assay which measures the expression of a specific epitope on apoB-100. Essentially the sandwich ELISA consists of a specific monoclonal antibody directed to that epitope on apoB-100 as a capture antibody laid onto a microtitre plate. […] A second polyclonal antibody is then used to quantify the amount of LDL captured.
The detailed immunoreactivity protocol is as follows. A nunc maxi-sorp microtiter plate is coated overnight at 4° C. with 100 μl of Anti-Human ApoB monoclonal antibody from Boehringer Mannheim (catalog # 1533 975) diluted 1:1000 in PBS pH 7.4. The compounds are dissolved in DMSO with appropriate concentration of LDL for 15 minutes and incubated at 37° C.
The coated microtiter plate is washed three times with 200 μl PBS/0.05% tween, and a sample of 100 μl LDL/Compound or LDL standard is added to each well. The plates are then incubated for 2 hours at room temperature.
The microtiter plate is washed three times with 200 μl PBS/0.05% tween, and 100 μl of 1:2000 Polyclonal Human Anti-ApolipoproteinB from Boehringer Mannheim (catalog # 726 494) in PBS/tween 0.05% is added. The plate is incubated for one hour at room temperature.
The microtiter plate is washed three times with 200 ul PBS/0.05% tween, and 100 μl of 1:2000 Anti-Sheep Ig peroxidase from Boehringer Mannheim (catalog # 605 345) in PBS/05% tween is added. The plate is incubated for one hour at room temperature.
The microtiter plate is washed three times with 200 ul PBS/0.05% tween, and 100 μl of TMB substrate is added and incubated for 5-10 minutes in the dark. The reaction is stopped with 15 μl 8N H2SO4 and read on the Bio-Rad Microplate plate reader at 450 nm within 30 minutes.

apoB-100 epitope in VLDL = biological target: T3, apoB-100 epitope in VLDL (Homo sapiens, UniProt P04114); test: Immunoreactivity sandwich ELISA with VLDL; type: binding; conditions: FIG. 6b
T3 construct: relative to the native VLDL; from tissue; host or cells: VLDL particles (plasma lipoprotein)
T3 sequence (P04114 28-4563): as above
Excerpt: To determine if the binding of the monosuccinic acid ester to VLDL and LDL can cause a change in the structure of apoB-100, an immunoreactivity assay was designed. This is a sandwich ELISA assay which measures the expression of a specific epitope on apoB-100. Essentially the sandwich ELISA consists of a specific monoclonal antibody directed to that epitope on apoB-100 as a capture antibody laid onto a microtitre plate. LDL or VLDL added to the plate is bound to the antibody as a result of recognition of the specific epitope. A second polyclonal antibody is then used to quantify the amount of LDL captured.

HepG2 cells = test: Uptake of radioiodinated human LDL by HepG2 cells; type: cell-based; conditions: HepG2, 24 h
Method: In order to test whether the change in structure of LDL by the monosuccinic acid ester of probucol can affect the uptake of this lipoprotein by liver cells in vitro, purified human radioiodinated LDL was mixed with various concentrations of the probucol derivative and incubated for 15 minutes at room temperature. After that, the mixture of LDL and the probucol derivative was added to HepG2 cells in culture and the uptake of radiolabeled LDL measured after 24 h. At each concentration of compound, the specific uptake of LDL was also determined by examining LDL uptake in the presence of excess unlabeled LDL.

[2] = biological target: T4, other epitopes on LDL apoB-100 (Homo sapiens, UniProt P04114); test: Epitope specificity: four other monoclonal antibodies (1D, 2D8, 5E11, 4G3) against apoB-100 on LDL; type: binding
T4 construct: from tissue; host or cells: LDL particles (plasma lipoprotein)
T4 sequence (P04114 28-4563): as above
Excerpt: The specificity of epitope expression changes by the monosuccinic acid ester of probucol were established by examining MSE's effects on other epitopes on LDL. This was probed by using four other monoclonal antibodies (1D, 2D8, 5E11, 4G3) in comparison to the Boehringer Mannheim (Band M) antibody used in the assays described above.

VLDL and LDL clearance = test: Lipoprotein turnover study in monkeys (stable isotope labelling of apoB-100); type: in vivo, monkey; conditions: monkeys, 25 mg/kg/day
Method: A lipoprotein turnover study was performed in monkeys that were dosed with the monosuccinic acid ester of probucol (25 mg/kg/day for one four weeks). The clearance rates of VLDL and LDL were examined before and after treatment of the animals using a stable isotope technique to label apoB-100 in VLDL and LDL.

total plasma cholesterol = test: Cholesterol lowering in mice lacking functional LDL receptors; type: in vivo, mouse; conditions: LDL receptor-deficient mice, 150 mg/kg/day oral with high fat/high cholesterol diet, 12 weeks
Method: To explore whether the enhanced clearance is mediated by the tissue LDL receptors, the major clearance mechanism for LDL in the body, the LDL lowering activity of the monosuccinic acid ester of probucol was tested in a mouse model that lacks functional LDL receptors (eliminated through genetic engineering).

plasma cholesterol = test: Plasma cholesterol lowering in hamsters; set-up: species or system hamster; conditions: ability to lower plasma cholesterol in vivo in hamsters, yes/no
Method: The monosuccinic acid ester of probucol and several other compounds were tested in vitro in the immunoreactivity cell-free assay described above in Example 3 and in vivo in hamsters for their ability to lower plasma cholesterol.

[3] = rabbit, in vivo, po, 150 mg/kg/day
Method: To examine if the monosuccinic acid ester of probucol partitions with plasma circulating lipoproteins, rabbits were fed a high-fat diet for six weeks and dosed with the compound at a dose of 150 mg/Kg per day orally. The animals were bled at six weeks and plasma lipoproteins isolated at high-speed using ultra-centrifugation.
Whole plasma was fractionated by fast phase liquid chromatography (FPLC) using a Superose 6HR 10/30 column. Elution was performed in a phosphate-buffered saline solution containing 0.01% EDTA and 0.02% NaN3 at a flow rate of 0.3 m/min. Approximately 0.6 ml was collected for each fraction and 20 fractions were available for analysis. The cholesterol content of the peaks corresponding to low density lipoprotein (LDL) and high density lipoprotein (HDL) were compared to CDC reference methods. VLDL corresponds to fractions 4-8 (elution volumes 7.2-9.6), LDL to fractions 9-16 (elution volume 10.2-14.4) and HDL to fractions 17-23 (elution volume 15-18.6).
The monosuccinic acid ester of probucol (MSE) levels in the different lipoprotein fractions were determined by high pressure liquid chromatography (HPLC) using a Rainin C 18 column (830201-C). Fractions corresponding to the different lipoprotein fractions were pooled and dried down by centrifugation under vacuum and resuspended in 0.5 ml of phosphate buffered saline. MSE was extracted with 0.5 ml of ether. 100 ul of the ether solution was added to 400 ul of acetonitrile and 0.02 ml was loaded onto the column. The mobile phase was 75:20:5 acetonitrile, methanol, and 50 mM acetic acid in methanol.
The amount of the MSE bound to each of the lipoproteins was estimated.

T1 sequence (P04114 28-4563): as above

SMILES: CC(C)(Sc1cc(C(C)(C)C)c(O)c(C(C)(C)C)c1)Sc1cc(C(C)(C)C)c(OC(=O)CCC(=O)O)c(C(C)(C)C)c1 [MSE, Butanedioic acid, mono[4-[[1-[[3,5-bis(1,1-dimethylethyl)-4-hydroxyphenyl]thio]-1-methylethyl]thio]-2,6-bis(1,1-dimethylethyl)phenyl] ester]
- shift of electrophoretic mobility of LDL (purified human LDL): shifted the mobility of LDL
- increase of binding of LDL to the capture monoclonal antibody ([1]; 15 uM): 300%
- increase of binding of LDL to the capture monoclonal antibody ([1]; 30 uM): 500%
- epitope expression on LDL detected by the Boehringer Mannheim antibody ([1]; FIG. 7): significantly enhanced
- Cell-Free Assay ([1]; immunoreactivity cell-free assay of Example 3, yes/no): yes
- increase of binding of VLDL apoB-100 epitope to the antibody relative to native VLDL (apoB-100 epitope in VLDL): about 375%
- increase of specific uptake of LDL relative to absence of MSE (HepG2 cells; 18 uM): 12.8%
- increase of specific uptake of LDL relative to absence of MSE (HepG2 cells; 25.5 uM): 77.6%
- increase of specific uptake of LDL relative to absence of MSE (HepG2 cells; 33 uM): 249%
- expression of epitopes detected by the other four antibodies against apoB-100 [2]: unaffected
- LDL clearance rates (VLDL and LDL clearance): increased
- clearance of VLDL after treatment relative to before dosing (VLDL and LDL clearance): marked enhancement
- production of VLDL or LDL (VLDL and LDL clearance): no apparent effects
- effect on total plasma cholesterol levels (total plasma cholesterol): did not result in any significant effects
- Hamster (plasma cholesterol): yes
- MSE recovered in the different lipoprotein fractions [3]: > 80%
- amount found in the non-lipoprotein plasma fraction [3]: Very little
- distribution of MSE among lipoprotein fractions [3]: most being found in the VLDL fraction, followed by LDL and some in IDL and HDL
